In general, pIC50 refers to the IC50 on a negative log10 scale, so that one unit is a factor of ten. In general, inhibition refers to the percentage by which the read-out fell short of the control.

pIC50: −log10 of the molar value.

IC50 and inhibition data for seven compounds are collected here from patent publication EP0694535A1, “Non-peptidyl tachykinin receptor antagonists” (ELI LILLY AND COMPANY, priority 1994, dated 1996).

One experiment addresses T1, NK-1 receptor (Homo sapiens, UniProt P25103).
T1 construct: an aliquot of IM9 cells; endogenous in cells; host or cells: IM9 cells (whole cells)
Description: NK-1 Receptor Binding Assay (competition with labeled substance P on IM9 cells). The settings on record: concentration which inhibits fifty percent of the binding of substance P, 20 pM labeled substance P, 45 minutes at 4°C. Put shortly:
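IM9 cells (1 x 10⁶/tube in serum-supplemented RPMI) were incubated for 45 min at 4°C with 20 pM […] substance P plus rising competitor concentrations. Binding was stopped by filtration on PEI-soaked glass fiber filters. Nonspecific binding was defined with 20 nM unlabeled ligand.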

The target in a further experiment is T2, human NK-2 receptor (Homo sapiens, UniProt P21452).
T2 construct: expressed in transfected cells; host or cells: CHO-hNK-2R cells (CHO-derived), membrane preparation
T2 sequence (P21452 1-398): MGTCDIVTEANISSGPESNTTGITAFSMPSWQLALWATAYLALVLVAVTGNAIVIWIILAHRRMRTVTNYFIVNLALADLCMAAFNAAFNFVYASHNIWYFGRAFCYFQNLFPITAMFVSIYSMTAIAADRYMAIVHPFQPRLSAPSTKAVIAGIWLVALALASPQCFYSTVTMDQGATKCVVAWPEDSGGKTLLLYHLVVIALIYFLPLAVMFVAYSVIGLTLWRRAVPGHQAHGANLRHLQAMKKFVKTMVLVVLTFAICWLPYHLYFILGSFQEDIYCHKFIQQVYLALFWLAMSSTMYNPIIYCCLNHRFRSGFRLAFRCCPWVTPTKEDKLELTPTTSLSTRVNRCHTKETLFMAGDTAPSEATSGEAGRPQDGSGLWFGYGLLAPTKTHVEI
The experiment can be described thus: NK-2 Receptor Binding Assay (CHO-hNK-2R membranes, iodohistidyl-neurokinin A). The settings on record: for inhibition at 10 µM: inhibition of neurokinin A binding at ten micromolar, read-out: Percent Inhibition @ 10 μM; for pIC50: values in parentheses, amount necessary to inhibit fifty percent of the binding of neurokinin A. On the procedure: The CHO-hNK-2R cells, a CHO-derived cell line transformed with the human NK-2 receptor, expressing about 400,000 such receptors per cell, were grown in 75 cm flasks or roller bottles in minimal essential medium (alpha modification) with 10% fetal bovine serum. The gene sequence of the human NK-2 receptor is given in N.P. Gerard, et al., Journal of Biological Chemistry, 265:20455-20462 (1990).
For preparation of membranes, 30 confluent roller bottle cultures were dissociated by washing each roller bottle with 10 ml of Dulbecco's phosphate buffered saline (PBS) without calcium and magnesium, followed by addition of 10 ml of enzyme-free cell dissociation solution (PBS-based, from Specialty Media, Inc.). After an additional 15 minutes, the dissociated cells were pooled and centrifuged at 1,000 RPM for 10 minutes in a clinical centrifuge. Membranes were prepared by homogenization of the cell pellets in 300 ml 50 mM Tris buffer, pH 7.4 with a Tekmar® homogenizer for 10-15 seconds, followed by centrifugation at 12,000 RPM (20,000 x g) for 30 minutes using a Beckman JA-14® rotor. The pellets were washed once using the above procedure. and the final pellets were resuspended in 100-120 ml 50 mM Tris buffer, pH 7.4, and 4 ml aliquots stored frozen at -70 °C. The protein concentration of this preparation was 2 mg/ml.
For the receptor binding assay, one 4-ml aliquot of the CHO-hNK-2R membrane preparation was suspended in 40 ml of assay buffer containing 50 mM Tris, pH 7.4, 3 mM manganese chloride, 0.02% bovine serum albumin (BSA) and 4 µg/ml chymostatin. A 200 µl volume of the homogenate (40 µg protein) was used per sample. The radioactive ligand was [[…]]iodohistidyl-neurokinin A (New England Nuclear, NEX-252), 2200 Ci/mmol. The ligand was prepared in assay buffer at 20 nCi per 100 µl; the final concentration in the assay was 20 pM. Non-specific binding was determined using 1 µM eledoisin. Ten concentrations of eledoisin from 0.1 to 1000 nM were used for a standard concentration-response curve.
All samples and standards were added to the incubation in 10 µl dimethylsulfoxide (DMSO) for screening (single dose) or in 5 µl DMSO for IC₅₀ determinations. The order of additions for incubation was 190 or 195 µl assay buffer, 200 µl homogenate, 10 or 5 µl sample in DMSO, 100 µl radioactive ligand. The samples were incubated 1 hr at room temperature and then filtered on a cell harvester through filters which had been presoaked for two hours in 50 mM Tris buffer, pH 7.7, containing 0.5% BSA. The filter was washed 3 times with approximately 3 ml of cold 50 mM Tris buffer, pH 7.7. The filter circles were then punched into 12 x 75 mm polystyrene tubes and counted in a gamma counter.
Table II, infra, provides a representative sample of the effectiveness as NK-2 receptor antagonists of many of the compounds of Formula I. The first column provides the Example number of the compound tested. The second column provides either the percent inhibition of neurokinin A binding when the compound is present in a ten micromolar concentration or the amount of compound (in micromolar amounts) necessary to inhibit fifty percent of the binding of neurokinin A. Those values which represent IC₅₀ values are designated by parentheses.

T1 sequence (P25103 whole entry): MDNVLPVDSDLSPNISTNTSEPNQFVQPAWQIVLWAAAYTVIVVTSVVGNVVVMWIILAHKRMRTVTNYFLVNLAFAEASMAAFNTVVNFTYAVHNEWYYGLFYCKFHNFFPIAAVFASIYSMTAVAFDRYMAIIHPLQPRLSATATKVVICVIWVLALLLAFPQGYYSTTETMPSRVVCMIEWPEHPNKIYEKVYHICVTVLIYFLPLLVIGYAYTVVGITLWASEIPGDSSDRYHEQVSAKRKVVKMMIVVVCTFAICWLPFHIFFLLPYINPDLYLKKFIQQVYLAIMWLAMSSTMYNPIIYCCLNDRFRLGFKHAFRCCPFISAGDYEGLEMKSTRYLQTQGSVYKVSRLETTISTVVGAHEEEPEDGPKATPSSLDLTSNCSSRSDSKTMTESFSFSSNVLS

On NK-1 receptor, `COc1cc(-c2nc3ccc(OCCN4CCCCCC4)cc3n2Cc2ccccc2)cc(OC)c1OC` [Example 73, 1-benzyl-2-(3,4,5-trimethoxyphenyl)-6-[2-(1-hexamethyleneiminyl)ethoxy]benzimidazole] showed a pIC50 of 7.28. Moreover, the inhibition at 10 µM at human NK-2 receptor is 83.5%.
On the same counts, the results for `COc1cc(-c2nc3ccc(OCCCN4CCCCC4)cc3n2Cc2ccccc2)cc(OC)c1OC` [Example 74, 1-benzyl-2-(3,4,5-trimethoxyphenyl)-6-[3-(1-piperidinyl)propoxy]benzimidazole] are 7.07 and 78%.
On NK-1 receptor, `COc1cc(-c2nc3ccc(OCCCCl)cc3n2Cc2ccccc2)cc(OC)c1OC` [Example 75, 1-benzyl-2-(3,4,5-trimethoxyphenyl)-6-(3-chloropropoxy)benzimidazole] had a pIC50 of 6.09. The inhibition at 10 µM at human NK-2 receptor was 86.3%.
Consider `COc1cc(-c2nc3ccc(OCCCl)cc3n2Cc2ccccc2)cc(OC)c1OC` [Example 76, 1-benzyl-2-(3,4,5-trimethoxyphenyl)-6-(2-chloroethoxy)benzimidazole], for which the pIC50 at NK-1 receptor was 6.48; on human NK-2 receptor it was 5.13.
On the same counts, the results for `COc1cc(-c2nc3ccc(OCCN4CCC(N5CCCCC5)CC4)cc3n2Cc2ccccc2)cc(OC)c1OC` [Example 77, 1-benzyl-2-(3,4,5-trimethoxyphenyl)-6-[2-[4-(piperidin-1-yl)piperdin-1-yl]ethoxy]benzimidazole] are 6.91 and 5.20.
With `Cc1cccc(-c2nc3ccc(O)cc3n2Cc2ccccc2)c1` [Example 84, 1-benzyl-2-(3-methylphenyl)-6-hydroxybenzimidazole], the pIC50 at NK-1 receptor is 6.23. The inhibition at 10 µM on human NK-2 receptor is 37.8%.
For the compound `Cc1cccc(-c2nc3ccc(OCCN4CCCCC4)cc3n2Cc2ccccc2)c1` [Example 85, 1-benzyl-2-(3-methylphenyl)-6-[2-(1-piperidinyl)ethoxy]benzimidazole], the pIC50 at NK-1 receptor was 6.12. Moreover, the inhibition at 10 µM at human NK-2 receptor stood at 73.1%.
